According to patent publication US8415469B2, “Compounds and methods for kinase modulation, and indications therefor” (Plexxikon Inc., priority 2005, dated 2013):

Key:
Assay type in all cases: biochemical
Pyk2 = molecular target: T1, Pyk2 (Homo sapiens, UniProt Q14289); assay: AlphaScreen kinase assay, Pyk2; conditions: read-out: IC50, activity toward kinase Pyk2
T1 construct: purchased Upstate Biotechnology

PDGFRA = PDGFRA (Homo sapiens, UniProt P16234); assay: AlphaScreen kinase assay, PDGFRA; conditions: read-out: IC50, activity toward kinase PDGFRA
Text: (§1) AlphaScreen assay was used to screen additional kinases. The assay is similarly dependent on the phosphorylation of a peptide substrate. In this assay, an antibody that recognizes phosphorylated substrate is bound to an acceptor bead. The peptide substrate is attached to biotin, which binds to a donor head that contains streptavidin. Thus phosphorylated substrate is bound by antibody and streptavidin, bringing the donor and acceptor heads into close proximity when kinase is not inhibited. The donor produces singlet oxygen which results in emission from the acceptor when they are in close proximity. Conversely, when kinase is inhibited, the donor and acceptor beads are not associated and the emission from the acceptor is reduced.
(§2) AlphaScreen assays were done using compounds dissolved in DMSO to a concentration of 20 mM. The compounds were diluted accordingly to the desired final concentrations in each sample well, using 1:3 serial dilution for a total of 8 concentration points.

MAP4K4 = MAP4K4 (Homo sapiens, UniProt O95819); assay: AlphaScreen kinase assay, MAP4K4; conditions: read-out: IC50, activity toward kinase MAP4K4
Syk = Syk (Homo sapiens, UniProt P43405); assay: AlphaScreen kinase assay, Syk; conditions: read-out: IC50, activity toward kinase Syk
How it was run: (§3)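 Kinase activity was measured as phosphorylation of a biotinylated peptide, detected with streptavidin donor and phospho-antibody acceptor beads. Compounds, from 20 mM DMSO stocks, were tested at eight concentrations in 1:3 serial dilution.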

IGF1R = IGF1R (Homo sapiens, UniProt P08069); assay: AlphaScreen kinase assay, IGF1R; conditions: read-out: IC50, activity toward kinase IGF1R
Description: AlphaScreen assays were done using compounds dissolved in DMSO to a concentration of 20 mM. The compounds were diluted accordingly to the desired final concentrations in each sample well, using 1:3 serial dilution for a total of 8 concentration points. Plates were prepared such that each kinase reaction is 20 μl in 1× kinase buffer, 5% DMSO and 10 μM ATP. After incubation of the kinase reaction for 1 hour at room temperature, 5 μl of donor beads in stop buffer (50 mM EDTA in 1× kinase buffer) was added, the sample was mixed and incubated for 20 minutes at room temperature before adding 5 μl of acceptor beads in stop buffer. The samples were incubated for 60 minutes at room temperature and the signal per well was read on AlphaQuest reader.

Gsk3β = Gsk3β (Homo sapiens, UniProt P49841); assay: AlphaScreen kinase assay, Gsk3β; conditions: read-out: IC50, activity toward kinase Gsk3β
How it was run: as §3

Hck = Hck (Homo sapiens, UniProt P08631); assay: AlphaScreen kinase assay, Hck; conditions: read-out: IC50, activity toward kinase Hck
Text: as §1, §2

Jnk2 = molecular target: T2, Jnk2 (Homo sapiens, UniProt P45984); assay: AlphaScreen kinase assay, Jnk2; conditions: read-out: IC50, activity toward kinase Jnk2
T2 construct: purchased Roche Protein Expression Group (Indianapolis, IN)
How it was run: as §3

Flt4 = molecular target: T3, Flt4 (Homo sapiens, UniProt P35916); assay: AlphaScreen kinase assay, Flt4; conditions: read-out: IC50, activity toward kinase Flt4
T3 construct: purchased ProQinase GmbH (Freiburg, Germany)
How it was run: as §3

Measured: IC50

Chain of Hck (P08631 whole entry): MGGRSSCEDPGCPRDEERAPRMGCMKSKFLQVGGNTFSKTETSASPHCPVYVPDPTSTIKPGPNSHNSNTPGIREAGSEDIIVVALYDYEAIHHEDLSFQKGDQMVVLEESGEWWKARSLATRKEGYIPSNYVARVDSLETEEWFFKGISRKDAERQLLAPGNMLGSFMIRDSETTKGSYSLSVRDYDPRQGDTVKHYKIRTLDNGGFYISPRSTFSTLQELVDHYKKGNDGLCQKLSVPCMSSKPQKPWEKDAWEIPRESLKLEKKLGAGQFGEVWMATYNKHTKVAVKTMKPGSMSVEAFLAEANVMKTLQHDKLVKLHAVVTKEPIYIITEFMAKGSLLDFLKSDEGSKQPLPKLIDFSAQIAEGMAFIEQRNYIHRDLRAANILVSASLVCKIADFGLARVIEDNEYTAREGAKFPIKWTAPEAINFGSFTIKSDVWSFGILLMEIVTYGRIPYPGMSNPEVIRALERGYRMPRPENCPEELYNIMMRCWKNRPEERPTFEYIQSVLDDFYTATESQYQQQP
T1 sequence (Q14289 whole entry): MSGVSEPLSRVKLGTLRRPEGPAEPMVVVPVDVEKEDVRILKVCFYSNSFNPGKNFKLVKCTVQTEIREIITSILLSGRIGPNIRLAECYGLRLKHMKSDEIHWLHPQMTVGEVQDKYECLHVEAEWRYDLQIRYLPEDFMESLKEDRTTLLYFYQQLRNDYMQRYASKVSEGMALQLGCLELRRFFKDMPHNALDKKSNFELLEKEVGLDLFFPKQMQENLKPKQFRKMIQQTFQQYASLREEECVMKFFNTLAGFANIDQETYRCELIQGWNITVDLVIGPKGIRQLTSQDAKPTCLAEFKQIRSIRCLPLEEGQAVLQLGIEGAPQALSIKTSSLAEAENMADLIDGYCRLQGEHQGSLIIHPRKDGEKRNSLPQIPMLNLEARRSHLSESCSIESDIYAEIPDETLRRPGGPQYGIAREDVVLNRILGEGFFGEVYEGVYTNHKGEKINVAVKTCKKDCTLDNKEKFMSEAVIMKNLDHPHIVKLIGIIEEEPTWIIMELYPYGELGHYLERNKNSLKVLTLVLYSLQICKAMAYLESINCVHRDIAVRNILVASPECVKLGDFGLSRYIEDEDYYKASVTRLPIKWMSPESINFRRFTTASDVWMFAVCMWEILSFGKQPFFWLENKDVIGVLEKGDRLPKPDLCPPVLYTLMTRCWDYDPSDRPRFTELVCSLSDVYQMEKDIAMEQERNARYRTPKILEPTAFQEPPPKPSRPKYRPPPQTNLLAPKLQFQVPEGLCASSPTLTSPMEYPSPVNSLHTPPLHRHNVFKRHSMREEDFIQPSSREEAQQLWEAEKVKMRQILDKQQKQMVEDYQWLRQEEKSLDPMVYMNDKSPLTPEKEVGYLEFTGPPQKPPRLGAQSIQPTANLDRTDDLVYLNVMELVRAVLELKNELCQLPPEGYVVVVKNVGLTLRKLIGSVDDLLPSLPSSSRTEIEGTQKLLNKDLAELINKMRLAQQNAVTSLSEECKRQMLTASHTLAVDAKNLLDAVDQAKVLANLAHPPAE
Chain of Gsk3β (P49841 whole entry): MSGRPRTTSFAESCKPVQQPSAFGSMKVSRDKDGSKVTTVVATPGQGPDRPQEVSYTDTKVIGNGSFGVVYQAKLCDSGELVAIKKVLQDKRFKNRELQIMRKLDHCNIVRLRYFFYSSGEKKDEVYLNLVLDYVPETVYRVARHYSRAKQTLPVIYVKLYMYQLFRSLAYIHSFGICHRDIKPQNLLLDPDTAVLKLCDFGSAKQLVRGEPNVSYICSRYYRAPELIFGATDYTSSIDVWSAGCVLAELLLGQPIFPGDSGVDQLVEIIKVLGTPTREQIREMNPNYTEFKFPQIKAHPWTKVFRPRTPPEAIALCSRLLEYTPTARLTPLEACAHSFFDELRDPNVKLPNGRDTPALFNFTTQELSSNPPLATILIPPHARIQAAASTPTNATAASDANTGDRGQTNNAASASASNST
Chain of IGF1R (P08069 31-1367): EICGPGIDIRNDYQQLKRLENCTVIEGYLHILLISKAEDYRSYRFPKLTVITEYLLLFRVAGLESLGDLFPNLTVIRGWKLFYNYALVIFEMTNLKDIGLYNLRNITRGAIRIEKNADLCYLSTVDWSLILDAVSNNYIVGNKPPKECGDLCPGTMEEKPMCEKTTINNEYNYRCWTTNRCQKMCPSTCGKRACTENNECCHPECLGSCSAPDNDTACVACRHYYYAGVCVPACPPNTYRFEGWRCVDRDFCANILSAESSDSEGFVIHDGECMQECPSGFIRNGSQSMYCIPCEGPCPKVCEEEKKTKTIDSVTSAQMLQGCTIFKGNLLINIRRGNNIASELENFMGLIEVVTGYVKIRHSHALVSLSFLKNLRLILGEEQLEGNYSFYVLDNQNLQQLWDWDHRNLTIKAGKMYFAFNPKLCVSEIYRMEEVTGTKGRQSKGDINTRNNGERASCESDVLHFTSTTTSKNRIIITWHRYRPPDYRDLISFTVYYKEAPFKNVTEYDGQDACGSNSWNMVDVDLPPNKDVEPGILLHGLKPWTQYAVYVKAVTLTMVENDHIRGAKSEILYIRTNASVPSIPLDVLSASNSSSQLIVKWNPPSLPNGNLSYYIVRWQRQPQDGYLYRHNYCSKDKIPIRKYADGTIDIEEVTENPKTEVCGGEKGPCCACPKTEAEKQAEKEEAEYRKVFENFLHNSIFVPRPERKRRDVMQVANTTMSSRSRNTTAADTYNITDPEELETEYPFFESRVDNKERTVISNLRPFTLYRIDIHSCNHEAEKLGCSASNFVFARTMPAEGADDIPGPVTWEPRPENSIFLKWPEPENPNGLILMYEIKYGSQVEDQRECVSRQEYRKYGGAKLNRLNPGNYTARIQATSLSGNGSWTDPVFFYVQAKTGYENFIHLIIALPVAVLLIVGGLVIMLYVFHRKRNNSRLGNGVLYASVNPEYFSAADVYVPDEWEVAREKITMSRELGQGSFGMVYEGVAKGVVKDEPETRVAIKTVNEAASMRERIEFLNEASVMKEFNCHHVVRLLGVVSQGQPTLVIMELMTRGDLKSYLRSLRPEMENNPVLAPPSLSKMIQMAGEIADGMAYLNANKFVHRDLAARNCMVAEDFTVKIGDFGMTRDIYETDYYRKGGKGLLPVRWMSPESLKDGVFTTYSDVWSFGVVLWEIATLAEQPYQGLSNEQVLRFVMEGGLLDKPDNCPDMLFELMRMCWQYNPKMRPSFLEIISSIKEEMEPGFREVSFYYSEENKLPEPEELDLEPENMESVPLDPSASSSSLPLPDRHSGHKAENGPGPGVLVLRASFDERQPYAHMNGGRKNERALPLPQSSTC
Chain of PDGFRA (P16234 24-1089): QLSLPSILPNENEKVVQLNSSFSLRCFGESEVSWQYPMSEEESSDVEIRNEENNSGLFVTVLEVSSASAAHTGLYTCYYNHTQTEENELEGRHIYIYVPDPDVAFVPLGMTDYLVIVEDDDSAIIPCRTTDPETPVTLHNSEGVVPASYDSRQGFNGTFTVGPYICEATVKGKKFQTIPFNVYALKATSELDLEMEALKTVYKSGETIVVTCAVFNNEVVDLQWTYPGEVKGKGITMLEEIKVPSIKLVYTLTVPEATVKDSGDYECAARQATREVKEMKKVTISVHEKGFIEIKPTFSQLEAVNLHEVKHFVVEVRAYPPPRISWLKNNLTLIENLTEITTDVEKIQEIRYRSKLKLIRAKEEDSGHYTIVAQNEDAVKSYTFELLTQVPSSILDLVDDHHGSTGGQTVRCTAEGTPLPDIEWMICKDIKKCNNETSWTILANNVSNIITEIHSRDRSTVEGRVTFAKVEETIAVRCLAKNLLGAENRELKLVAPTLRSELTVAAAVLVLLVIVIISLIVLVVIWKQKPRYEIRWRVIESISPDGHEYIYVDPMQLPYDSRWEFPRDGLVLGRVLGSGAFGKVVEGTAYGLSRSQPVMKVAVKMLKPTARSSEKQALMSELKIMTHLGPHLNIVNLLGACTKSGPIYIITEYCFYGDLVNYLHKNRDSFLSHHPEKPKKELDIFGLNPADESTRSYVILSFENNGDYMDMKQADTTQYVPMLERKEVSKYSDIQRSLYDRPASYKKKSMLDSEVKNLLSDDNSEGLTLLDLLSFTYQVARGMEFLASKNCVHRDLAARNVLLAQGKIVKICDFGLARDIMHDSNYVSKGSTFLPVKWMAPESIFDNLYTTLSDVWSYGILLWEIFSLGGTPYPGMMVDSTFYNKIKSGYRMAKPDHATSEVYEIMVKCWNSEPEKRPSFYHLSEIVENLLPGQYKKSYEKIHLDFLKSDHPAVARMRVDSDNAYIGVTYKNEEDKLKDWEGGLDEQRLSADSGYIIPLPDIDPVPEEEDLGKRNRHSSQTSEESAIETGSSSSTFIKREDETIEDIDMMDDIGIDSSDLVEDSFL
T2 sequence (P45984 whole entry): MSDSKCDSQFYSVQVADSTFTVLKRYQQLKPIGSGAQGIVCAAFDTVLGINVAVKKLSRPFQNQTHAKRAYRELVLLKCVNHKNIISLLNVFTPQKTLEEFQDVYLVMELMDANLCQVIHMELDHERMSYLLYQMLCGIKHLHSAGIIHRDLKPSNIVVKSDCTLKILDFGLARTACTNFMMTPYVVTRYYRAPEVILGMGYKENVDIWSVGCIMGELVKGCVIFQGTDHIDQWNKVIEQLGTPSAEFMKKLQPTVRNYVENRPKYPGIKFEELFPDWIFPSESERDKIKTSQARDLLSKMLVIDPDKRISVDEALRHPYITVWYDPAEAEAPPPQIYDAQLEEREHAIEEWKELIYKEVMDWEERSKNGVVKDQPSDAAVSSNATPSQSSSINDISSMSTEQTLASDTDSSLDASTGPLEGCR

CCCC(=O)Nc1ccc(F)c(Cc2c[nH]c3ncc(-c4cccnc4)cc23)c1F [Compound P-1280]
≤ 10 µM: Pyk2 | PDGFRA | MAP4K4

Nc1cccc(-c2cnc3[nH]cc(C(=O)c4cc(O)ccc4F)c3c2)c1 [Compound P-0002]
≤ 10 µM: Syk | IGF1R

CCCS(=O)(=O)Nc1ccc(F)c(C(=O)c2c[nH]c3ncccc23)c1F [Compound P-0007, Propane-1-sulfonic acid [2,4-difluoro-3-(1H-pyrrolo[2,3-b]pyridine-3-carbonyl)-phenyl]-amide]
≤ 10 µM: Gsk3β | PDGFRA | MAP4K4 | Hck

COc1cc(OC)cc(C(=O)c2c[nH]c3ncc(-c4cccc(NS(C)(=O)=O)c4)cc23)c1 [Compound P-1426, N-{3-[3-(3,5-Dimethoxy-benzoyl)-1H-pyrrolo[2,3-b]pyridin-5-yl]-phenyl}-methanesulfonamide]
≤ 10 µM: Gsk3β | PDGFRA | MAP4K4 | Hck

O=C(c1cccc(O)c1F)c1c[nH]c2ncc(-c3cccs3)cc12 [Compound P-0521, (2-fluoro-3-hydroxy-phenyl)-(5-thiophen-2-yl-1H-pyrrolo[2,3-b]pyridin-3-yl)-methanone]
≤ 10 µM: Pyk2 | Jnk2 | Syk | Flt4

COc1cccc(C(=O)c2c[nH]c3ncc(-c4cccc(NC(C)=O)c4)cc23)c1F [Compound P-1336, N-{3-[3-(2-Fluoro-3-methoxy-benzoyl)-1H-pyrrolo[2,3-b]pyridin-5-yl]-phenyl}-acetamide]
not listed: Pyk2 | Jnk2 | Flt4
≤ 10 µM: all other assays above

OCCOc1ccc(F)c(Cc2c[nH]c3ncc(-c4cccnc4)cc23)c1F [Compound P-1394, 2-[2,4-Difluoro-3-(5-pyridin-3-yl-1H-pyrrolo[2,3-b]pyridin-3-ylmethyl)-phenoxy]-ethanol]
≤ 10 µM: PDGFRA | IGF1R | MAP4K4 | Hck

CCCS(=O)(=O)Nc1ccc(F)c(C(=O)c2c[nH]c3ncc(OC)cc23)c1F [Compound P-0806, Propane-1-sulfonic acid [2,4-difluoro-3-(5-methoxy-1H-pyrrolo[2,3-b]pyridine-3-carbonyl)-phenyl]-amide]
≤ 10 µM: Pyk2 | PDGFRA | MAP4K4 | Hck

CCCCNC(=O)Nc1ccc(F)c(C(=O)c2c[nH]c3ncc(-c4cccnc4)cc23)c1F [Compound P-1318, 1-Butyl-3-[2,4-difluoro-3-(5-pyridin-3-yl-1H-pyrrolo[2,3-b]pyridine-3-carbonyl)-phenyl]-urea]
≤ 10 µM: Jnk2 | MAP4K4 | Hck
